Data from US11535592B2, “Antimicrobial compounds, compositions, and method” (University of Kentucky Research Foundation, priority 2019, dated 2022).
Read-outs that look alike come from different tables or passages of the source.

Legend:
[1] = system: Porphyromonas gingivalis 381; assay: Antimicrobial screening by colorimetric WST-1 assay against P. gingivalis; type: cell-based; details: P. gingivalis 381, FIG. 2, read-out: growth inhibition
Experimental: (§1) The following bacterial strains were used in these studies: Porphyromonas gingivalis 381, Actinomyces naeslundii ATCC 49340, Streptococcus sanguinis ATCC 10556, Veillonella parvula ATCC 10790, Aggregatibacter actinomycetemcomitans JP2, and Fusobacterium nucleatum ATCC 25586. All bacterial strains were initially grown on blood agar plates (BBL, Becton Dickinson, Sparks, Md., USA) from a frozen stock and incubated in appropriate aerobic (for S. sanguinis) or anaerobic (for P. gingivalis, A. naeslundii, V. parvula, A. actinomycetemcomitans, and F. nucleatum) conditions at 37° C. for 24 h or 3 days, respectively. Then, a liquid culture was started for each strain in 3 mL of Brain Hearth infusion (BHI) broth alone or supplemented with 5 μg/mL of hemin and 1 μg/mL of menadione in the case of P. gingivalis. Overnight cultures were inoculated in fresh broth and allowed to reach logarithmic growth for 3-4 h, time at which antimicrobial activity of different treatments was evaluated.
Initial screening for testing the antimicrobial effect of zafirlukast derivatives (4a, 4b, 11a, 11b, 12a, 21a, 21b, 22a, 22b, 23a, and 23b) was performed using the colorimetric water-soluble tetrazolium-1 (WST-1) assay, which serves as a surrogate marker for cell proliferation and viability. Bacterial strains (10^6/well) grown logarithmically in broth (90 μL) using 96-wells plates, were exposed to different treatments for 2 h and then 15 μL of WST-1 reagent (Roche, Manheim, Germany) were added to each well. Plates were incubated for 2 h under appropriate culture conditions and then absorbance was measured at 450 nm, with a reference wavelength of 600 nm, using SpectraMax M2 plate reader (Molecular Devices, Sunnyvale, Calif., USA). The percentage of inhibitory effect (i.e., % growth inhibition) was calculated using the optical densities (ODs) of bacterial metabolic activity, under different experimental conditions according to the following formula: 100×[OD (control)−OD (experimental)/OD (control)]. For P. gingivalis, control cultures were treated only with medium and experimental cultures treated with DMSO (vehicle for zafirlukast and its derivatives) and 1 μg/mL of the antibiotic tetracycline. When tested against A. naeslundii, A. actinomycetemcomitans, S. sanguinis, V. parvula, and F. nucleatum control cultures were treated only with medium and experimental cultures were treated with DMSO (vehicle for zafirlukast and its derivatives), antibiotic penicillin/streptomycin −1× (100 U/mL of penicillin and 100 μg/mL of streptomycin) for Gram-positives and 1 μg/mL of tetracycline for Gram-negative anaerobic bacteria.

[2] = system: OKF6 oral epithelial cells (OKF6/hTERT); assay: cells; type: cell-based; details: 24 h; for Alive (%) / Dead (%) / Percentage of OKF6 cells alive: human; for IC50: Homo sapiens, OKF6
Experimental: Cytotoxic effect of zafirlukast derivatives in oral epithelial cells. The immortalized oral keratinocyte cell line OKF6/hTERT (OKF6) was used for viability assays in response to zafirlukast derivatives 22b, 23a, and 23b as previously reported. 3, ^4 Cells were cultured in keratinocyte-serum free medium (SFM) supplemented with bovine pituitary extract (25 μg/mL) and recombinant epidermal growth factor (0.2 ng/mL) (Ker-SFM). Cells were maintained at 37° C. in a humidified incubator with 5% CO2.
[…] Cells were then harvested by trypsinization, washed with DMEM medium supplemented with 5% fetal bovine serum at 1100 rpm and resuspended in fresh Ker-SFM. Equal volumes of cell suspension and trypan blue were mixed and 10 μL evaluated in the automated cell counter (Countess II FL) (Life Technologies, Singapure) to determine percentage of alive and death cells. These experiments were performed in two independent experiments by duplicate. […] The IC50 values were calculated by using the Quest Graph™ IC50 calculator (ATT Bioquest, Inc, https://www.aatbio.com/tools/ic50-calculator).

[3] = system: OKF6 oral epithelial cells (OKF6/hTERT); assay: Cell viability of oral epithelial cells (apoptosis and necrosis) by flow cytometry, FITC-Annexin V / propidium iodide; type: cell-based, human; details: 24 h
Experimental: Cytotoxic effect of zafirlukast derivatives in oral epithelial cells. The immortalized oral keratinocyte cell line OKF6/hTERT (OKF6) was used for viability assays in response to zafirlukast derivatives 22b, 23a, and 23b as previously reported. 3, ^4 Cells were cultured in keratinocyte-serum free medium (SFM) supplemented with bovine pituitary extract (25 μg/mL) and recombinant epidermal growth factor (0.2 ng/mL) (Ker-SFM). Cells were maintained at 37° C. in a humidified incubator with 5% CO2. Cytotoxic effects of zafirlukast derivatives were confirmed by flow cytometry analysis (FACS). After different treatments, attached OKF6 cells were harvested by trypsinization and mixed with cells that were previously rescued from supernatants. Cells were washed with PBS at 1100 rpm for 5 min and further labeled with 5 μL of FITC-Annexin V and 5 μL of propidium iodide (BD Pharmingen, San Jose, Calif.) for 15 min at room temperature. Labeled cells were analyzed by FACS, with at least 10,000 events read at wavelengths averaging 488 nm for excitation and 530 nm for emission in a flow cytometer FACSCalibur (Becton Dickinson, San Jose, Calif.).

[4] = system: Porphyromonas gingivalis 381; assay: Bactericidal effect on P. gingivalis by colony forming units (CFU) assay; type: cell-based; details: 24 h exposure, 7 days incubation, FIG. 4; for bacteriostatic or bactericidal: 100 μM, CFU
Experimental: as §1
P. gingivalis (10^6/well) grown in appropriate medium and anaerobic conditions was exposed to zafirlukast derivatives dissolved in DMSO for 24 h and further 50 μL of bacterial culture dilutions (1:400) were spread onto blood agar plates. Numbers of CFUs were obtained after 7 days of incubation in appropriate anaerobic conditions.

[5] = 0-100 μM in triplicate, Quest Graph IC50 calculator, read-out: IC50 (OKF6 cell viability)

COc1ccc(Cc2c[nH]c3ccccc23)cc1C(=O)NS(=O)(=O)c1ccccc1C [Compound 21b]
inhibition at 10 µM [1]: ~80%

COc1ccc(Cc2c[nH]c3ccccc23)cc1C(=O)NS(=O)(=O)c1ccccc1 [Compound 21a]
inhibition at 10 µM [1]: ~40%

COc1cc(C(=O)NS(=O)(=O)c2ccccc2C)ccc1Cc1cn(C)c2ccc(NC(=O)OC3CCCC3)cc12 [Zafirlukast, zafirlukast, reference compound]
Alive (%) ([2]; 25 μM): 17.3 ± 5.2% | Dead (%) ([2]; 25 μM): 82.8 ± 5.2% | Apoptosis (%) ([3]; 25 μM, FACS (Table 3, FIG. 7)): 90.8 ± 2.5% | Necrosis (%) ([3]; 25 μM, FACS (Table 3, FIG. 7)): 0.65 ± 0.58% | Viable ([3]; 25 μM, FACS (Table 3, FIG. 7)): 8.53 ± 3.08%

COc1ccc(Cc2cn(C)c3ccc([N+](=O)[O-])cc23)cc1C(=O)NS(=O)(=O)c1ccccc1C [Compound 23b]
bacteriostatic or bactericidal [4]: bactericidal | IC50 [2, 5]: > 100 µM | IC50 ([2]; estimated beyond the highest concentration tested (100 μM), read-out: IC50 (OKF6 cell viability), estimated): ~230 µM | Dead (%) ([2]; 1 μM): 17.3 ± 9.5% | Percentage of OKF6 cells alive ([2]; 1 μM): 83.7 ± 9.1% | Percentage of OKF6 cells alive ([2]; 2.5 μM): 87.7 ± 3.8% | Percentage of OKF6 cells alive ([2]; 5 μM): 87.0 ± 2.6% | Alive (%) ([2]; 10 μM): 48.3 ± 17.5% | Dead (%) ([2]; 10 μM): 51.8 ± 17.5% | Percentage of OKF6 cells alive ([2]; 10 μM): 83.0 ± 5.3% | Percentage of OKF6 cells alive ([2]; 15 μM): 79.0 ± 5.3% | Percentage of OKF6 cells alive ([2]; 20 μM): 75.3 ± 3.8% | Percentage of OKF6 cells alive ([2]; 25 μM): 77.0 ± 2.6% | Percentage of OKF6 cells alive ([2]; 50 μM): 69.0 ± 7.5% | Percentage of OKF6 cells alive ([2]; 100 μM): 58.7 ± 4.2% | inhibition at 1 µM [1]: 15 to 40% | inhibition at 10 µM [1]: 90 to 100% | Apoptosis (%) ([3]; human, 1 μM): 24.8 ± 13.9% | Necrosis (%) ([3]; human, 1 μM): 1.08 ± 0.17% | Viable ([3]; human, 1 μM): 74.4 ± 13.8% | Apoptosis (%) ([3]; human, 10 μM): 35.8 ± 21.3% | Necrosis (%) ([3]; human, 10 μM): 2.23 ± 1.18% | Viable ([3]; human, 10 μM): 61.7 ± 22.2%

COc1ccc(Cc2cn(C)c3ccc([N+](=O)[O-])cc23)cc1C(=O)NS(=O)(=O)c1ccccc1 [Compound 23a]
bacteriostatic or bactericidal [4]: bactericidal | inhibition at 1 µM ([4]; Porphyromonas gingivalis, 381, 1 μM, read-out: growth inhibition (CFU)): ~60% | inhibition at 10 µM ([4]; Porphyromonas gingivalis, 381, 10 μM, read-out: growth inhibition (CFU)): 100% | IC50 [2, 5]: 54 µM | Dead (%) ([2]; 1 μM): 20.5 ± 16.4% | Percentage of OKF6 cells alive ([2]; 1 μM): 68.0 ± 5.0% | Percentage of OKF6 cells alive ([2]; 2.5 μM): 70.7 ± 10.3% | Percentage of OKF6 cells alive ([2]; 5 μM): 55.3 ± 8.1% | Alive (%) ([2]; 10 μM): 73.8 ± 4.1% | Dead (%) ([2]; 10 μM): 26.3 ± 4.1% | Percentage of OKF6 cells alive ([2]; 10 μM): 49.0 ± 16.1% | Percentage of OKF6 cells alive ([2]; 15 μM): 50.3 ± 9.5% | Percentage of OKF6 cells alive ([2]; 20 μM): 48.0 ± 6.1% | Percentage of OKF6 cells alive ([2]; 25 μM): 54.0 ± 7.8% | Percentage of OKF6 cells alive ([2]; 50 μM): 45.3 ± 13.1% | Percentage of OKF6 cells alive ([2]; 100 μM): 15.7 ± 7.1% | inhibition at 1 µM [1]: 15 to 40% | inhibition at 10 µM [1]: 90 to 100% | Apoptosis (%) ([3]; human, 1 μM): 38.5 ± 27.5% | Necrosis (%) ([3]; human, 1 μM): 0.69 ± 0.46% | Viable ([3]; human, 1 μM): 60.9 ± 27.4% | Apoptosis (%) ([3]; human, 10 μM): 44.2 ± 26.9% | Necrosis (%) ([3]; human, 10 μM): 2.81 ± 2.31% | Viable ([3]; human, 10 μM): 53.2 ± 29.0%

COc1ccc(Cc2cn(C)c3ccccc23)cc1C(=O)NS(=O)(=O)c1ccccc1C [Compound 22b]
IC50 [2, 5]: 16 µM | Dead (%) ([2]; 1 μM): 8.5 ± 1.7% | Percentage of OKF6 cells alive ([2]; 1 μM): 69.3 ± 9.6% | Percentage of OKF6 cells alive ([2]; 2.5 μM): 41.0 ± 1.0% | Percentage of OKF6 cells alive ([2]; 5 μM): 66.0 ± 5.6% | Alive (%) ([2]; 10 μM): 40.8 ± 16.6% | Dead (%) ([2]; 10 μM): 59.3 ± 16.6% | Percentage of OKF6 cells alive ([2]; 10 μM): 38.3 ± 4.9% | Percentage of OKF6 cells alive ([2]; 15 μM): 41.0 ± 17.3% | Percentage of OKF6 cells alive ([2]; 20 μM): 22.7 ± 11.7% | Percentage of OKF6 cells alive ([2]; 25 μM): 47.0 ± 20.0% | Percentage of OKF6 cells alive ([2]; 50 μM): 33.0 ± 15.1% | Percentage of OKF6 cells alive ([2]; 100 μM): 12.3 ± 11.0% | inhibition at 1 µM [1]: 15 to 40% | inhibition at 10 µM [1]: 90 to 100% | Apoptosis (%) ([3]; human, 1 μM): 23.7 ± 16.6% | Necrosis (%) ([3]; human, 1 μM): 2.16 ± 1.62% | Viable ([3]; human, 1 μM): 74.1 ± 18.1% | Apoptosis (%) ([3]; human, 10 μM): 29.6 ± 19.1% | Necrosis (%) ([3]; human, 10 μM): 1.37 ± 0.39% | Viable ([3]; human, 10 μM): 69.1 ± 18.9%

Cc1ccccc1S(=O)(=O)NC(=O)c1ccc(Cc2c[nH]c3ccccc23)cc1 [Compound 11b]
inhibition at 10 µM [1]: ~90%

Cn1cc(Cc2ccc(C(=O)NS(=O)(=O)c3ccccc3)cc2)c2ccccc21 [Compound 12a]
inhibition at 10 µM [1]: 90 to 100%

COc1cc(C(=O)NS(=O)(=O)c2ccccc2)ccc1Cc1cn(C)c2ccccc12 [Compound 4a]
inhibition at 100 µM [1]: > 60%

COc1cc(C(=O)NS(=O)(=O)c2ccccc2C)ccc1Cc1cn(C)c2ccccc12 [Compound 4b]
inhibition at 100 µM [1]: > 60%

O=C(NS(=O)(=O)c1ccccc1)c1ccc(Cc2c[nH]c3ccccc23)cc1 [Compound 11a]
inhibition at 10 µM [1]: ~40%
